Test results published in ChEMBL document CHEMBL3217580, “Structureactivity relationships of benzimidazole derivatives as antiparasitic agents: Dual activity-difference (DAD) maps” (Medchemcomm, 2011).

Assays:
[1] = tested on: Giardia intestinalis; assay: Antimicrobial activity against Giardia intestinalis; type: functional, organism-based, Giardia duodenalis; conditions: for IC50: Giardia duodenalis
[2] = tested on: Trichomonas vaginalis; assay: Antimicrobial activity against Trichomonas vaginalis; type: functional, organism-based
[3] = Trichomonas vaginalis, read-out: pIC50 (converted)
[4] = Trichomonas vaginalis, read-out: IC50

pIC50 [1]	IC50 ([1]; read-out: pIC50 (converted))	pIC50 [2]	IC50 [2, 3]	IC50 ([1]; read-out: IC50)	IC50 [2, 4]	IC50 ([2]; read-out: IC50)	SMILES
7.68	0.0209 µM	–	–	–	–	–	CN(C)CCSc1nc2c(Cl)cc(Cl)cc2[nH]1
6.19	0.646 µM	5.8	1.58 µM	–	–	–	FC(F)(F)c1nc2cc(Br)ccc2[nH]1
6.6	0.251 µM	6.72	0.191 µM	–	–	–	FC(F)(F)c1nc2c(Br)cc(Br)cc2[nH]1
5.82	1.51 µM	6.46	0.347 µM	–	–	–	CCCSc1ccc2[nH]c(C(F)(F)F)nc2c1
6.85	0.141 µM	6.57	0.269 µM	–	0.27 µM	0.27 µM	FC(F)(F)c1nc2c(Br)c(Br)c(Br)cc2[nH]1
7.42	0.038 µM	6.16	0.692 µM	–	–	–	OCCSc1nc2c(Cl)cc(Cl)cc2[nH]1
6.98	0.105 µM	6.83	0.148 µM	–	–	–	OCCSc1nc2c(Br)cc(Br)cc2[nH]1
7.54	0.0288 µM	6.51	0.309 µM	–	–	–	CN(C)CCSc1nc2c(Br)cc(Br)cc2[nH]1
7.72	0.0191 µM	7.39	0.0407 µM	–	–	–	CCN(CC)CCSc1nc2c(Cl)cc(Cl)cc2[nH]1
7.46	0.0347 µM	7.53	0.0295 µM	–	0.029 µM	–	CCN(CC)CCSc1nc2c(Br)cc(Br)cc2[nH]1
7.14	0.0724 µM	7.07	0.0851 µM	0.072 µM	0.085 µM	–	CN(C)CCCSc1nc2c(Cl)cc(Cl)cc2[nH]1
7.69	0.0204 µM	7.99	0.0102 µM	0.02 µM	0.011 µM	–	CN(C)CCCSc1nc2c(Br)cc(Br)cc2[nH]1
7.26	0.055 µM	7.14	0.0724 µM	–	–	–	Clc1cc(Cl)c2nc(SCCN3CCCCC3)[nH]c2c1
6.9	0.126 µM	7.69	0.0204 µM	–	–	–	Brc1cc(Br)c2nc(SCCN3CCCCC3)[nH]c2c1
7.41	0.0389 µM	7.29	0.0513 µM	–	–	–	Clc1cc(Cl)c2nc(SCCN3CCOCC3)[nH]c2c1
7.23	0.0589 µM	7.23	0.0589 µM	–	–	–	Brc1cc(Br)c2nc(SCCN3CCOCC3)[nH]c2c1
7.09	0.0813 µM	7.96	0.011 µM	–	0.01 µM	–	O=[N+]([O-])c1ccc(CCSc2nc3c(Cl)cc(Cl)cc3[nH]2)cc1
7.43	0.0372 µM	8.48	0.00331 µM	–	0.003 µM	–	O=[N+]([O-])c1ccc(CCSc2nc3c(Br)cc(Br)cc3[nH]2)cc1

SMILES	pIC50 [1]	IC50 ([1]; read-out: pIC50 (converted))	pIC50 [2]	IC50 [2, 3]	IC50 ([1]; read-out: IC50)	IC50 [2, 4]	IC50 ([2]; read-out: IC50)
O=C(c1ccccc1)c1ccc2[nH]c(C(F)(F)F)nc2c1	5.64	2.29 µM	4.55	28.2 µM	2.31 µM	28.4 µM	–
